Source: ChEMBL document CHEMBL1130585, “New antifungals selected by molecular topology” (1998)
≈ marks a conversion by molar mass, not a printed value. Blank lines part the entries; values can stand above or below the molecule they belong to. Calls of active or inactive are those of the source. The rule behind the calls is not given here.

Experiments:
[1] = tested on: Saccharomyces cerevisiae; test: Compound was evaluated for inhibitory activity against Saccharomyces cerevisiae; 4-6.4; format: functional
[2] = tested on: Candida albicans; test: Compound was evaluated for inhibitory activity against Candida albicans; 4-6.4; format: functional
[3] = tested on: Candida albicans; test: Compound was evaluated for inhibitory activity against Candida albicans; 3.2-4; format: functional
[4] = tested on: Saccharomyces cerevisiae; test: Compound was evaluated for inhibitory activity against Saccharomyces cerevisiae; 3.2-4; format: functional
[5] = tested on: Saccharomyces cerevisiae; test: Compound was evaluated for inhibitory activity against Saccharomyces cerevisiae; IA= Inactive; format: functional, organism-based
[6] = tested on: Candida albicans; test: Compound was evaluated for inhibitory activity against Candida albicans; IA= Inactive; format: functional, organism-based
[7] = tested on: Saccharomyces cerevisiae; test: Compound was evaluated for inhibitory activity against Saccharomyces cerevisiae; IA = Inactive; format: functional, organism-based
[8] = tested on: Candida albicans; test: Compound was evaluated for inhibitory activity against Candida albicans; 2-3.2; format: functional
[9] = tested on: Saccharomyces cerevisiae; test: Compound was evaluated for inhibitory activity against Saccharomyces cerevisiae; 2-3.2; format: functional
[10] = tested on: Candida albicans; test: Compound was evaluated for inhibitory activity against Candida albicans; format: functional
[11] = tested on: Candida albicans; test: microbe, parasite or virus in culture
[12] = tested on: Saccharomyces cerevisiae; test: microbe, parasite or virus in culture
[13] = tested on: Saccharomyces cerevisiae; test: Compound was evaluated for inhibitory activity against Saccharomyces cerevisiae; format: functional

MIC [1]: 4 µg/mL (≈ 18.6 µM) | MIC [2]: 4 µg/mL (≈ 18.6 µM)
Structure (SMILES): BrC1[C@H]2C[C@@H]3C[C@@H](C[C@H]1C3)C2 (some centres undefined)

MIC [5]: inactive | MIC [6]: inactive
Structure (SMILES): CC1(CBr)C2CCC1(CBr)C(=O)C2 (centres undefined)

MIC [10]: < 1.6 µg/mL | MIC [11]: 1.6 µg/mL (≈ 3.84 µM) | MIC [12]: 1.6 µg/mL (≈ 3.84 µM) | MIC [13]: < 1.6 µg/mL
Structure (SMILES): Clc1ccc(COC(Cn2ccnc2)c2ccc(Cl)cc2Cl)c(Cl)c1 (centres undefined) [MICONAZOLE]

MIC [5]: inactive | MIC [6]: inactive
Structure (SMILES): Brc1sc(Br)c(Br)c1Br

MIC [8]: 2 µg/mL (≈ 9.6 µM) | MIC [9]: 2 µg/mL (≈ 9.6 µM)
Structure (SMILES): O=c1sc2sc(=O)sc2s1

The next lines start with the molecule.

Structure (SMILES): CCC(=O)O [PROPIONIC ACID]
MIC [3]: 3.2 µg/mL (≈ 43.2 µM) | MIC [4]: 3.2 µg/mL (≈ 43.2 µM)

Structure (SMILES): Cc1c(Cc2c(C)n(C)n(-c3ccccc3)c2=O)c(=O)n(-c2ccccc2)n1C
MIC [6]: inactive | MIC [7]: inactive

Structure (SMILES): Oc1c(I)cc(I)c2cccnc12
MIC [6]: inactive | MIC [7]: inactive

Structure (SMILES): O=C(Nc1ccccc1)c1ccccc1O [SALICYLANILIDE]
MIC [8]: 2 µg/mL (≈ 9.38 µM) | MIC [9]: 2 µg/mL (≈ 9.38 µM)

Structure (SMILES): [Cl-].[Cl-].c1ccc(-c2nn(-c3ccccc3)[n+](-c3ccc(-c4ccc(-[n+]5nc(-c6ccccc6)nn5-c5ccccc5)cc4)cc3)n2)cc1 [NEOTETRAZOLIUM CHLORIDE]
MIC [10]: < 1.6 µg/mL | MIC [13]: < 1.6 µg/mL

Structure (SMILES): BrCCc1c[nH]c2ccccc12
MIC [8]: 2 µg/mL (≈ 8.92 µM) | MIC [9]: 2 µg/mL (≈ 8.92 µM)
